Data: US20240269145A1, “USE OF INDOLE COMPOUND AS INHIBITORS OF FERROPTOSIS” (MITOIMMUNE THERAPEUTICS INC., priority 2023, published 2024)

Tests used:
H9C2 cells = assay: Mitochondrial iron ion accumulation (Mito-FerroGreen, images) after erastin; format: cell-based; conditions: H9C2, erastin 5 μM, 5 hr; Example Compound 1 1 μM, DFO 100 μM
Method: [The source words this procedure for another cell line and says it was used here with some conditions changed.] Experimental Example 9-1: To confirm the inhibitory effect against mitochondrial iron ion accumulation in lung epithelial cells and adrenal medulla cells, 3×10^5 MLE-12 cells and PC-12 cells were each dispensed into a confocal dish and cultured for 18 to 24 hours. Each well was treated with Example Compound 1 and DFO, which were diluted so that their final concentration became 1 μM and 10 μM, respectively, and culture was performed for 20 minutes. Afterwards, the MLE-12 cells were treated with RSL3 so that the final concentration became 1 μM, and cultured for 1 hour and 30 minutes, and the PC-12 cells were treated with RSL3 so that the final concentration became 0.3 μM, and cultured for 30 minutes. To confirm the inhibitory effect against mitochondrial iron ion accumulation, Mito-FerroGreen [DOJINDO; M489] was used. According to the manufacturer's experimental method, Mito-FerroGreen was diluted in the cell culture medium so that the final concentration became 1 μM, and the cells were treated therewith and allowed to react for 30 minutes to perform fluorescent staining. The cells fluorescently stained with Mito-FerroGreen were observed using a fluorescence microscope [Carl Zeiss; Axio Observer 7] to investigate the change in fluorescence (excitation/absorption 450 to 490 nm/500 to 550 nm) compared to the control group (RSL3 untreated group). […]

PC-12 cells = assay: Cytosolic lipid ROS after RSL3, Experimental Example 3-4; format: cell-based; conditions: PC-12, RSL3 0.3 μM, 1 hr
Method: [The source words this procedure for another cell line and says it was used here with some conditions changed.] Experimental Example 3-1: To confirm the protective effect against cytosolic lipid reactive oxygen species in lung epithelial cells, 2×10^5 MLE-12 cells were dispensed into each well of a 12-well plate and cultured for 18 to 24 hours. Each well was treated with Example Compound 1 and ferrostatin-1, which were diluted so that their final concentration became 0.01, 0.1, 1, and 10 μM, and culture was performed for 15 minutes. Afterwards, the cells were treated so that the final concentration of RSL3 became 1 μM, and cultured for 2 hours. To confirm the inhibitory effect against cytosolic lipid reactive oxygen species, BODIPY™ 581/591 C11 (lipid peroxidation sensor) [Invitrogen™; D3861] was used. According to the manufacturer's experimental method, BODIPY™ 581/591 C11 was diluted in the cell culture medium so that the final concentration became 5 μM, and the cells were treated therewith and allowed to react for 30 minutes to perform fluorescent staining. The MLE-12 cells fluorescently stained with BODIPY™ 581/591 C11 were detached from the 12-well plate using 0.25% Trypsin-EDTA and transferred to a microtube, and the fluorescence (excitation/absorption 500 to 650 nm/510 to 665 nm) was measured using BD FACSLyric™ to calculate the rate of change compared to the control group. […]

O=S1(=O)CCN(Cc2cc(NC3CCOCC3)c3[nH]c(-c4ccccc4)cc3c2)CC1 [Example 1, 5-[(1,1-dioxido-4-thiomorpholinyl)methyl]-2-phenyl-N-(tetrahydro-2H-pyran-4-yl)-1H-indole-7-amine]
mitochondrial iron ion accumulation (images) (H9C2 cells): inhibited
concentration at which cytosolic lipid reactive oxygen species were significantly decreased (PC-12 cells): 0.1 µM
